How the values were obtained:
[1] = compound: COc1cc2ncnc(Nc3ccc(F)c(Cl)c3)c2cc1OCCCN1CCOCC1 [Gefitinib]; conditions: max 10 µM
Summary of the method: (§1)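 Cancer cell lines were seeded in 1536-well plates in 7.5 μl DMEM/F12 or RPMI with 10% FBS, held 24 hours at 37°C and 5% CO2, then dosed for 72 hours (final DMSO typically 0.2%). Viability was read by CellTiter-Glo 2.0 luminescence and scaled between blank-well and DMSO-well means. The single-agent IC50 comes from dose responses fitted to a two-parameter logistic curve with a non-linear mixed effects model.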

[2] = compound: O=C(c1cc(Cc2n[nH]c(=O)c3ccccc23)ccc1F)N1CCN(C(=O)C2CC2)CC1 [Olaparib]; conditions: max 10 µM
Summary of the method: as §1

[3] = compound: Cc1nc(-c2cn3c(n2)-c2ccc(-c4cnn(C(C)(C)C(N)=O)c4)cc2OCC3)n(C(C)C)n1 [Taselisib]; conditions: max 10 µM
Summary of the method: as §1

[4] = compound: NC1(c2ccc(-c3nc4ccn5c(=O)[nH]nc5c4cc3-c3ccccc3)cc2)CCC1 [MK-2206]; conditions: max 10 µM
Summary of the method: as §1

[5] = compound: CCc1c2c(nc3ccc(O)cc13)-c1cc3c(c(=O)n1C2)COC(=O)[C@]3(O)CC [SN-38]; conditions: max 0.3 µM
Summary of the method: as §1

[6] = compound: COc1cc(Nc2ncc3c(n2)-c2ccc(Cl)cc2C(c2c(F)cccc2OC)=NC3)ccc1C(=O)O [Alisertib]; conditions: max 10 µM
Summary of the method: as §1

[7] = compound: CCN(CCO)CCCOc1ccc2c(Nc3cc(CC(=O)Nc4cccc(F)c4)[nH]n3)ncnc2c1 [AZD2811]; conditions: max 1 µM
Summary of the method: as §1

[8] = compound: CC(C)n1c(=O)n(C)c2cnc3cc(F)c(-c4ccc(OCCCN5CCCCC5)nc4)cc3c21 [AZD1390]; conditions: max 0.3 µM
Summary of the method: as §1

[9] = compound: CC(=O)c1c(C)c2cnc(Nc3ccc(N4CCNCC4)cn3)nc2n(C2CCCC2)c1=O [Palbociclib]; conditions: max 10 µM
Summary of the method: as §1

[10] = compound: C[C@@H](Nc1cc(F)cc(F)c1)c1cc(C(=O)N(C)C)cc2c(=O)cc(N3CCOCC3)oc12 [AZD8186]; conditions: max 3 µM
Summary of the method: as §1

[11] = compound: CC(=O)Nc1cccc(-n2c(=O)n(C3CC3)c(=O)c3c(Nc4ccc(I)cc4F)n(C)c(=O)c(C)c32)c1 [Trametinib]; conditions: max 1 µM
Summary of the method: as §1

[12] = compound: C=CCn1c(=O)c2cnc(Nc3ccc(N4CCN(C)CC4)cc3)nc2n1-c1cccc(C(C)(C)O)n1 [AZD1775]; conditions: max 3 µM
Summary of the method: as §1

[13] = compound: Cc1cc2ncnn2cc1Nc1ncc2c(n1)n(C1CCOCC1)c(=O)n2C [AZD7648]; conditions: max 10 µM
Summary of the method: as §1

[14] = compound: C[C@@H](Oc1cc(-c2cnn(C3CCNCC3)c2)cnc1N)c1c(Cl)ccc(F)c1Cl [Crizotinib]; conditions: max 10 µM
Summary of the method: as §1

[15] = compound: Cn1cnc2c(F)c(Nc3ccc(Br)cc3Cl)c(C(=O)NOCCO)cc21 [Selumetinib]; conditions: max 10 µM
Summary of the method: as §1

[16] = compound: COc1cccc(OCCCN)c1-c1cc(Nc2cnc(C#N)cn2)n[nH]1 [Prexasertib]; conditions: max 1 µM
Summary of the method: as §1

[17] = compound: CN(CC[C@H](CSC1=CC=CC=C1)NC2=C(C=C(C=C2)S(=O)(=O)NC(=O)C3=CC=C(C=C3)N4CCC(CC4)[C@H](C5=CC=CC=C5C6=CC=C(C=C6)Cl)O)S(=O)(=O)C(F)(F)F)CCO [AZD4320]; conditions: max 1 µM
Summary of the method: as §1

[18] = compound: CS(=O)(=O)CCNCc1ccc(-c2ccc3ncnc(Nc4ccc(OCc5cccc(F)c5)c(Cl)c4)c3c2)o1 [Lapatinib]; conditions: max 10 µM
Summary of the method: as §1

[19] = compound: CC1=CN2[C@@H](C1)C=NC3=CC(=C(C=C3C2=O)OC)OCCCCCOC4=C(C=C5C(=C4)N=C[C@@H]6CC(=CN6C5=O)C)OC [SG3199]; conditions: max 0.001 µM
Summary of the method: as §1

[20] = compound: COc1cccc2c1C(=O)c1c(O)c3c(c(O)c1C2=O)C[C@@](O)(C(=O)CO)C[C@@H]3O[C@H]1C[C@H](N)[C@H](O)[C@H](C)O1 [Doxorubicin]; conditions: max 1 µM
Summary of the method: as §1

[21] = compound: CN(C)CCCOc1ccc(-c2ccc3ncc4c(c3c2)n(C2CCOCC2)c(=O)n4C)cn1 [AZD0156]; conditions: max 3 µM
Summary of the method: as §1

[22] = compound: C[C@@H](c1ccc2nccn2c1)n1nnc2ncc(-c3cnn(C)c3)nc21 [Savolitinib]; conditions: max 1 µM
Summary of the method: as §1

[23] = compound: CC1(C)CCC(CN2CCN(c3ccc(C(=O)NS(=O)(=O)c4ccc(NCC5CCOCC5)c([N+](=O)[O-])c4)c(Oc4cnc5[nH]ccc5c4)c3)CC2)=C(c2ccc(Cl)cc2)C1 [Venetoclax]; conditions: max 1 µM
Summary of the method: as §1

[24] = compound: CC1=C(C(=CC=C1)Cl)NC(=O)C2=CN=C(S2)NC3=CC(=NC(=N3)C)N4CCN(CC4)CCO [Dasatinib]; conditions: max 2 µM
Summary of the method: as §1

[25] = compound: COc1nnc2ccc(N3CCC(c4ccc(OCCN5CCN(C)C(=O)[C@H]5C)cc4)CC3)nn12 [AZD5153]; conditions: max 1 µM
Summary of the method: as §1

[26] = compound: C1CN(CCC1(C(=O)N[C@@H](CCO)C2=CC=C(C=C2)Cl)N)C3=NC=NC4=C3C=CN4 [Capivasertib]; conditions: max 10 µM
Summary of the method: as §1

[27] = compound: C[C@@H]1COCCN1C2=NC(=NC(=C2)C3(CC3)[S@](=N)(=O)C)C4=C5C=CNC5=NC=C4 [AZD6738]; conditions: max 10 µM
Summary of the method: as §1

[28] = compound: Cc1c2c(nn1C)CSCc1cc(n(C)n1)CSc1cc(c3ccccc3c1)OCCCc1c(C(=O)O)n(C)c3c-2c(Cl)ccc13 [AZD5991]; conditions: max 1 µM
Summary of the method: as §1

Row | Cell Line | IC50, cell viability 72 h [1] | IC50, cell viability 72 h [2] | IC50, cell viability 72 h [3] | IC50, cell viability 72 h [4] | IC50, cell viability 72 h [5] | IC50, cell viability 72 h [6] | IC50, cell viability 72 h [7] | IC50, cell viability 72 h [8] | IC50, cell viability 72 h [9] | IC50, cell viability 72 h [10] | IC50, cell viability 72 h [11] | IC50, cell viability 72 h [12] | IC50, cell viability 72 h [13] | IC50, cell viability 72 h [14] | IC50, cell viability 72 h [15] | IC50, cell viability 72 h [16] | IC50, cell viability 72 h [17] | IC50, cell viability 72 h [18] | IC50, cell viability 72 h [19] | IC50, cell viability 72 h [20] | IC50, cell viability 72 h [21] | IC50, cell viability 72 h [22] | IC50, cell viability 72 h [23] | IC50, cell viability 72 h [24] | IC50, cell viability 72 h [25] | IC50, cell viability 72 h [26] | IC50, cell viability 72 h [27] | IC50, cell viability 72 h [28]
1 | TYK-nu (Ovarian Carcinoma) | > 10000 nM | > 10000 nM | > 10000 nM | > 10000 nM | 10.8 nM | > 10000 nM | > 1000 nM | > 300 nM | > 10000 nM | > 3000 nM | 301 nM | 763 nM | > 10000 nM | > 10000 nM | 4360 nM | 57.2 nM | > 1000 nM | > 10000 nM | > 1 nM | > 1000 nM | > 3000 nM | > 1000 nM | > 1000 nM | > 2000 nM | 280 nM | > 10000 nM | 5370 nM | > 1000 nM
2 | ETK-1 (Biliary Tract Carcinoma) | > 10000 nM | > 10000 nM | 3330 nM | > 10000 nM | 227 nM | 6570 nM | > 1000 nM | > 300 nM | > 10000 nM | > 3000 nM | > 1000 nM | 1020 nM | > 10000 nM | > 10000 nM | > 10000 nM | 563 nM | > 1000 nM | 6780 nM | > 1 nM | > 1000 nM | > 3000 nM | > 1000 nM | > 1000 nM | 580 nM | > 1000 nM | > 10000 nM | 6850 nM | > 1000 nM
3 | HOP-92 (Non-Small Cell Lung Carcinoma) | > 10000 nM | > 10000 nM | 6710 nM | > 10000 nM | 109 nM | > 10000 nM | > 1000 nM | > 300 nM | > 10000 nM | > 3000 nM | 139 nM | > 3000 nM | > 10000 nM | > 10000 nM | > 10000 nM | 134 nM | 140 nM | > 10000 nM | > 1 nM | > 1000 nM | > 3000 nM | > 1000 nM | > 1000 nM | > 2000 nM | > 1000 nM | > 10000 nM | > 10000 nM | > 1000 nM
4 | PA-TU-8902 (Pancreatic Carcinoma) | > 10000 nM | > 10000 nM | 3550 nM | > 10000 nM | > 300 nM | > 10000 nM | > 1000 nM | > 300 nM | > 10000 nM | > 3000 nM | > 1000 nM | > 3000 nM | > 10000 nM | > 10000 nM | > 10000 nM | 693 nM | > 1000 nM | > 10000 nM | > 1 nM | > 1000 nM | > 3000 nM | > 1000 nM | > 1000 nM | > 2000 nM | > 1000 nM | > 10000 nM | > 10000 nM | > 1000 nM
5 | HuO9 (Osteosarcoma) | > 10000 nM | > 10000 nM | 511 nM | 8020 nM | 3.15 nM | 5740 nM | > 1000 nM | > 300 nM | > 10000 nM | > 3000 nM | > 1000 nM | 307 nM | > 10000 nM | 7070 nM | > 10000 nM | 46.3 nM | 171 nM | > 10000 nM | > 1 nM | 322 nM | > 3000 nM | > 1000 nM | > 1000 nM | > 2000 nM | 275 nM | > 10000 nM | 1160 nM | 64.2 nM
6 | NCI-H1688 (Small Cell Lung Carcinoma) | > 10000 nM | > 10000 nM | 8310 nM | > 10000 nM | > 300 nM | > 10000 nM | > 1000 nM | > 300 nM | > 10000 nM | > 3000 nM | > 1000 nM | 2540 nM | > 10000 nM | > 10000 nM | > 10000 nM | 533 nM | > 1000 nM | > 10000 nM | > 1 nM | > 1000 nM | > 3000 nM | > 1000 nM | > 1000 nM | > 2000 nM | > 1000 nM | > 10000 nM | > 10000 nM | > 1000 nM
7 | HCC1143 (Breast Carcinoma) | > 10000 nM | > 10000 nM | 5950 nM | > 10000 nM | 237 nM | > 10000 nM | > 1000 nM | > 300 nM | > 10000 nM | > 3000 nM | > 1000 nM | 1050 nM | > 10000 nM | > 10000 nM | > 10000 nM | 19 nM | > 1000 nM | > 10000 nM | > 1 nM | > 1000 nM | > 3000 nM | > 1000 nM | > 1000 nM | > 2000 nM | > 1000 nM | > 10000 nM | 2870 nM | > 1000 nM

Source: the supplement of paper PMC11061612
